Laboratory results: patent publication US20220378711A1, “PH-Responsive Nanoparticles for Treating Cancer” (United States Government as represented by the Department …, priority 2021, published 2022)
Read-outs that look alike come from different tables or passages of the source.

Key:
[1] = tested on: MIA PaCa-2 cells; assay: MTT cell viability and CompuSyn synergy assay; format: cell-based; settings: MIA PaCa-2, 72 h MTT
Procedure: (§1) PDAC cells (5000 cells/well) were seeded in 96-well plates and, 24 h later, cells were treated with different concentrations of nanocapsulated SCH 772984, DEM, or their combinations. Control cells were treated with an equivalent level of DMSO. Drug concentrations were optimized for the cell-based assay of the individual drug. At 72 h after treatment, the cell viability assay was performed by adding 10 μL of the 3-(4,5-dimethylthiazol-2-yl)-2,5-diphenyltetrazolium bromide (MTT) reagent to each well, and the plates were incubated for 3 h at 37° C. The MTT reagent was removed, DMSO (100 μL/well) was added to solubilize the crystals, and absorbance was measured at 570 nm. Synergy analysis was performed using CompuSyn software.
(§2) The data was fitted in CompuSyn. These two cell lines were selected because MIA PaCa-2 cells are responsive to ERKi and GEM compared to Panc-1. […] However, consistent with previous studies, the Panc-1 cells were more resistant to these drugs compared to MIA PaCa-2 cells.

[2] = tested on: Panc-1 cells; assay: MTT cell viability and CompuSyn synergy assay; format: cell-based; settings: Panc-1, 72 h MTT
Procedure: as §1, §2

[3] = tested on: MIA PaCa-2 cells; assay: Clonogenic survival assay; format: cell-based
Procedure: PDAC cells were seeded at a density of 400 cells/well in 6-well plates. The following day, cells were treated with nanoencapsulated ERKi at a concentration of 0.01 nM, carrier-encapsulated GEM at a concentration of 0.1 nM, and a combination of 0.01 nM encapsulated ERKi, and 0.1 nM encapsulated GEM for 12 days. After the incubation time, the medium was removed, and the cells were fixed with 3:1 methanol/glacial acetic acid for 15 min at room temperature. After the fixing reagent was removed, the cells were stained with 0.5% crystal violet solution (in methanol) for 15 min. The plates were washed thoroughly with tap water to remove residual crystal violet. The plates were dried overnight, and the colonies were counted using Colony Doc-It imaging station using Colony Doc-It imaging software.
To examine the link between ERK and GEM resistance in PDAC cells, a Clonogenic assay was performed for anchorage-dependent growth in MIA PaCa-2 and Panc-1 cell lines in the presence or absence of free or encapsulated ERKi (10 nM) or GEM (100 nM) alone or a combination of these two drugs for 12 days. The half-effective doses of encapsulated ERKi or encapsulated GEM was purposely selected from the preceding studies shown in FIG. 6 and FIG. 7 because these doses of free-drugs have minimal or no effect on PDAC cell viability (FIG. 6) and ERK phosphorylation (FIG. 7).

[4] = LC-MS drug concentration in tumor xenograft tissue; format: in vivo, nude mice; settings: nude, mouse, intraperitoneal, injected ip as drug-pH NPs, 75 mg/kg SCH772984, 40 mg/kg GEM, read-out: drug concentration in tumor tissues
Procedure: LC-MS analysis of drugs was performed on a Q-TOF Synapt G2S mass spectrometer (Waters, Milford, Mass.) coupled with an Acquity UPLC system (Waters). Drugs were resolved on an ACUITY UPLC HSS T3 column ([…], 100 Å pore diameter, 2.1 mm×150 mm, Waters) with an acetonitrile/water gradient containing 0.1% formic acid. GEM was detected as [M+H]+, and SCH 772984 was detected as [M+2H]2+ in a positive ESI mode.
Next, in vivo studies to obtain information on the systemic stability and tumor enrichment capacity of pH NPs were performed. The fate of drug-encapsulated nanoparticles in the MIA PaCa-2-pancreatic tumor xenograft model in immune-compromised nude mice was studied. Upon intraperitoneal (ip) administration of free or drug-pH NPs [75 mg/kg for SCH772984 and 40 mg/kg for GEM; human equivalent dose (HED)] for 48 h in tumor-bearing mice (N=3), the drug concentrations in tumor tissues was measured using LC-MS.

[5] = cited from earlier work
[6] = tested on: ERK phosphorylation (p44/p42 MAPK/ERK1/2); assay: Western blot of ERK activity in PDAC cells; format: cell-based
Procedure: Western blot analysis was the same as described in Mol. Cancer Ther. 2019, 18, 788-800. Briefly, cells were seeded at a cell density of 500,000 cells/well in 6-well plates. About 60% of confluent cells were treated with nanoparticles alone (NPA), free ERKi (FEI), or encapsulated ERKi (EEI) for 3 h at 0.001, 0.01, 0.1, 1, and 10 nM concentrations of the drug. Cells were lysed in a lysis buffer (50 mmol/L Tris pH7.4, 150 mmol/L sodium chloride, 1% NP-40, 0.25% sodium deoxycholate, 1 mmol/L EDTA) containing PMSF and Protease/Phosphatase Inhibitor Cocktail (Cell Signaling Technologies). Proteins were quantified with the Pierce BCA protein assay kits (Thermo Fisher Scientific). Under reducing conditions, a […] sample was loaded onto 10% SDS gels for the separation of proteins, and the resulting gel was transferred onto a […] nitrocellulose membrane. The blots were then immersed in a 5% blocking buffer made in Tris base and Tween-20 followed by incubation with antibodies against total-ERK and phospho-ERK primary antibodies (Cell Signaling Technologies; diluted in blocking buffer at 1:1000) overnight. The secondary antibody was incubated for 1 h at room temperature. The signal from the blots was detected using the Super Signal West Femto Maximum Sensitivity substrate (Thermo Fisher).
To determine the functional efficacy of ERKi-pH NPs, the question of whether encapsulated ERKi SCH 772984 can suppress the ERK activity by suppressing ERK phosphorylation (p44/p42 MAPK/ERK1/2) in PDAC cells was investigated. To do so, MIA PaCa-2 cells were exposed to nanoparticles free of SCH 772984 or encapsulated with SCH 772984 with different doses (0.1-100 nM) for 3 hours. Following treatment, total, phospho-ERK, RSK, and GAPDH were determined using Western blot analysis in the cell extracts.

[7] = cited from earlier work; remark: listed apart in the source

Row | Structure (SMILES) | IC50 of free drug compared with encapsulated drug [1] | IC50 of free drug compared with encapsulated drug [2] | survival and colony-forming ability ([3]; MIA PaCa-2, 12 days, ERKi 10 nM, GEM 100 nM) | concentration at 48 h [4] [ng/g] | pKa [5] | change of pERK level, less than 10 nM encapsulated ERKi ([6]; 10 nM, MIA PaCa-2) [fold] | total ERK and total RSK expression ([6]; MIA PaCa-2, 3 hours) | p-ERK and p-RSK levels ([6]; MIA PaCa-2, 3 hours, dose-dependent) | concentration at which inhibitory effect on p-ERK/p-RSK was first detected ([6]; MIA PaCa-2, 3 hours, doses 0.1-100 nM) [nM] | effect of ERKi on GEM's effect on PDAC cells ([3]; ERKi at minimum inhibitory concentration (0.01 nM)) | solubility [7] | solubility ([7]; listed as unencapsulated ERKi)
1 | Nc1ccn([C@@H]2O[C@H](CO)[C@@H](O)C2(F)F)c(=O)n1 [GEM, gemcitabine] | markedly higher | markedly higher | decrease the colony-forming ability of these cells significantly | ~4 |  |  |  |  |  |  |  | 
2 | CCCCNCCNCCCC [N,N′-dibutylethylenediamine] |  |  |  |  | 4.0 |  |  |  |  |  |  | 
3 | O=C(Nc1ccc2[nH]nc(-c3ccncc3)c2c1)[C@@H]1CCN(CC(=O)N2CCN(c3ccc(-c4ncccn4)cc3)CC2)C1 [SCH 772984] | markedly higher | markedly higher |  | ~2 |  | 2.4 | did not affect | markedly decreased | 100 | significantly enhances | low water solubility | extremely poor solubility
